Results: patent publication US10851093B2, “Tyrosine kinase inhibitors” (Rigel Pharmaceuticals, Inc., priority 2018, dated 2020)

Experiments:
Axl = target: T1, Axl (Homo sapiens, UniProt P30530); assay: Phospho-AKT HTRF, HUVEC, Axl ABX-L, 8 pt; type: cell-based; conditions: HUVEC cells, pAkt(Ser473) HTRF, Axl ABX-L stimulation
T1 construct: Seed HUVECs (10K cells/well) in EBM-2 complete media; host or cells: HUVEC
T1 sequence (P30530 26-894): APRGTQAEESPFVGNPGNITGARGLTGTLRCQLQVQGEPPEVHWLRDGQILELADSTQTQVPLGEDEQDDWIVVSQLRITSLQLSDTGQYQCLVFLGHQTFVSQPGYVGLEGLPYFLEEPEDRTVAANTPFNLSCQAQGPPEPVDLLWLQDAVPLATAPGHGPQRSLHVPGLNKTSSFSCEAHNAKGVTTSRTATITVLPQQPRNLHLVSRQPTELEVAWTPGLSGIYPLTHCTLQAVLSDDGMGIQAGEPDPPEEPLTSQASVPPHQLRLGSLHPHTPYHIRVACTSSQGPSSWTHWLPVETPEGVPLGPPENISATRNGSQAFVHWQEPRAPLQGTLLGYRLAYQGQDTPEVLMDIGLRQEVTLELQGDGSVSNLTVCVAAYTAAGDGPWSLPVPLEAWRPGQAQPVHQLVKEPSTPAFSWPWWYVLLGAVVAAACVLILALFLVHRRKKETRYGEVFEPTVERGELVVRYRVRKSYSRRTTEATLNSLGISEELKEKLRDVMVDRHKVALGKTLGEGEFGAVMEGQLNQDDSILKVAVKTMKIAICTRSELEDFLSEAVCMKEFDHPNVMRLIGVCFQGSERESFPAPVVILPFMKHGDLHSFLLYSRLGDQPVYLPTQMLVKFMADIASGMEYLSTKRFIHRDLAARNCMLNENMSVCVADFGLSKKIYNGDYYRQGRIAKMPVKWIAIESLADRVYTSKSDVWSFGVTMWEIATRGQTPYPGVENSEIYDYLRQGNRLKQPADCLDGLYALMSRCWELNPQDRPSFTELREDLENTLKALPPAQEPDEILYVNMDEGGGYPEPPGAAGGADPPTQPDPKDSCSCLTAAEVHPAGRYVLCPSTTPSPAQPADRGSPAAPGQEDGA
Method: [The source words this procedure for another target and reports this target under the same test.] (§1) Example 13: PAKT HTRF-HUVEC Assay
(§2) Seed HUVECs (10K cells/well) in EBM-2 complete media (EBM-2 basal medium plus EGM-2 BulletKit supplements) overnight at 37° C., 5% CO2 in Costar 96-well white clear-bottom plates. Remove culture media and starve cells for 3-4 hours in 50 μL/well EBM-2 basal medium. Perform serial dilution of compounds in DMSO from 2.5 mM in 4-fold dilutions, and then dilute 1:125 in EBM-2 basal media. Mix 50 μL/well 2× compounds with 50 μL/well HUVECs in duplicate in Costar 96-well white clear-bottom plates. Incubate plates for 1 hour at 37° C., 5% CO2. Cross-link anti-human MerTK antibody to Biotin-SP-conjugated anti-mouse IgG antibody (1:1) to give final concentrations of 5 μg/mL of anti-human MerTK-XL. Stimulate HUVECs with 25 μL/well 5× anti-human MerTK-XL to give final concentrations of 1 ug/mL for 10 minutes at 37° C., 5% CO2. Completely remove media and lyse HUVECs with 40 uL:WELL per well of Cisbio HTRF 1× lysis buffer. Performed pAkt(Ser473) HTRF assay in ProxiPlate-384 Plus, white 384-shallow well microplate according to the vendor protocol and read plates with a SpectralMax Paradigm plate reader. Enter the HTRF values into Athena (Rigel) for curve fitting, EC50 calculation, and database storage.

MerTK = target: T2, MerTK (Homo sapiens, UniProt Q12866); assay: Phospho-AKT HTRF, HUVEC, Mer-XL, 8 pt (pAKT HTRF-HUVEC assay, anti-human MerTK-XL stimulation); type: cell-based; conditions: HUVEC cells, pAkt(Ser473) HTRF, anti-human MerTK-XL stimulation 1 ug/mL 10 minutes
T2 construct: Seed HUVECs (10K cells/well) in EBM-2 complete media; host or cells: HUVEC
T2 sequence (Q12866 21-999): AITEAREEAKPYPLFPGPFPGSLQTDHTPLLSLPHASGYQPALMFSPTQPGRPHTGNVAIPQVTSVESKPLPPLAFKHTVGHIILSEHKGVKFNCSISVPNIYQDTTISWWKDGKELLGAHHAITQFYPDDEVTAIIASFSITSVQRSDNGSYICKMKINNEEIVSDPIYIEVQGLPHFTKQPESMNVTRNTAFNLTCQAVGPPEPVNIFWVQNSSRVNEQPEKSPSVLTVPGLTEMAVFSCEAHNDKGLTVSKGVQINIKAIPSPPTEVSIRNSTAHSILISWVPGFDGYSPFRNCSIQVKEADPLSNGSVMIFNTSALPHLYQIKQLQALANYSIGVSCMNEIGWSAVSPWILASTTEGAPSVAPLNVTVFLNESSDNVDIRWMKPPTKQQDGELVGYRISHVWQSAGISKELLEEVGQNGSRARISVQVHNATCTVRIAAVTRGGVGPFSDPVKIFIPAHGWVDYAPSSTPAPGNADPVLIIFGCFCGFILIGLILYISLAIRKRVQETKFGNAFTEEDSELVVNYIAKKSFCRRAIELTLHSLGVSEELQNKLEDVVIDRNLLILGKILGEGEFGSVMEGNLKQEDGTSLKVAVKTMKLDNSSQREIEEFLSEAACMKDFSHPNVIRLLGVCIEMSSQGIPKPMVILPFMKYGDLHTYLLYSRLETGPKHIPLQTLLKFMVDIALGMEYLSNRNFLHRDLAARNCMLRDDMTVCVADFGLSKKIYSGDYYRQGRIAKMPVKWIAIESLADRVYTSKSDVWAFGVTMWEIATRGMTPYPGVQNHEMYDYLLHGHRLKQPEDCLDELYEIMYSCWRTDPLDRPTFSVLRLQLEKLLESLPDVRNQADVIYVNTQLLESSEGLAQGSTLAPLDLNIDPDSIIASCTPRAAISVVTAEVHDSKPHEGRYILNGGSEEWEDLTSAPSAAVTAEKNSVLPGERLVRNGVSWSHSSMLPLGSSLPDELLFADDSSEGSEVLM
Method: as §1, §2

Structure (SMILES)	EC50 (Axl) [nM]	EC50 (MerTK) [nM]
COc1cc2c(Oc3ccc(NC(=O)c4cc(N5CC6(CCOCC6)C5)ccn4)nc3)ccnc2cc1OCCCN1CCOCC1 [Compound 18, N-(5-((6-methoxy-7-(3-morpholinopropoxy)quinolin-4-yl)oxy)pyridin-2-yl)-4-(7-oxa-2-azaspiro[3.5]nonan-2-yl)picolinamide]	114	98
COc1cc2c(Oc3ccc(NC(=O)c4cc(N5CC6(COC6)C5)ccn4)nc3)ccnc2cc1OCCCN1CCOCC1 [Compound 19, N-(5-((6-methoxy-7-(3-morpholinopropoxy)quinolin-4-yl)oxy)pyridin-2-yl)-4-(2-oxa-6-azaspiro[3.3]heptan-6-yl)picolinamide]	568	505
COc1cc2c(Oc3ccc(NC(=O)c4cc(N5CC(F)(F)C5)ccn4)nc3)ccnc2cc1OCCCN1CCOCC1 [Compound 20, 4-(3,3-difluoroazetidin-1-yl)-N-(5-((6-methoxy-7-(3-morpholinopropoxy)quinolin-4-yl)oxy)pyridin-2-yl)picolinamide]	163	209
COc1cc2c(Oc3ccc(NC(=O)c4cc(N5CCC(F)(F)CC5)ccn4)nc3)ccnc2cc1OCCCN1CCOCC1 [Compound 21, 4-(4,4-difluoropiperidin-1-yl)-N-(5-((6-methoxy-7-(3-morpholinopropoxy)quinolin-4-yl)oxy)pyridin-2-yl)picolinamide]	62.8	80.6
COc1cc2c(Oc3ccc(NC(=O)c4cc(N5CCC(C)(C)CC5)ccn4)nc3)ccnc2cc1OCCCN1CCOCC1 [Compound 22, 4-(4,4-dimethylpiperidin-1-yl)-N-(5-((6-methoxy-7-(3-morpholinopropoxy)quinolin-4-yl)oxy)pyridin-2-yl)picolinamide]	187	96
COc1cc2c(Oc3ccc(NC(=O)c4cccc(N5CCCCC5)n4)nc3)ccnc2cc1OCCCN1CCOCC1 [Compound 23, N-(5-((6-methoxy-7-(3-morpholinopropoxy)quinolin-4-yl)oxy)pyridin-2-yl)-6-(piperidin-1-yl)picolinamide]	66.8	13
COc1cc2c(Oc3ccc(NC(=O)c4cccc(N5CCC(O)CC5)n4)nc3)ccnc2cc1OCCCN1CCOCC1 [Compound 24, 6-(4-hydroxypiperidin-1-yl)-N-(5-((6-methoxy-7-(3-morpholinopropoxy)quinolin-4-yl)oxy)pyridin-2-yl)picolinamide]	742	654
COc1cc2c(Oc3ccc(NC(=O)c4cccc(N5CCOCC5)n4)nc3)ccnc2cc1OCCCN1CCOCC1 [Compound 25, N-(5-((6-methoxy-7-(3-morpholinopropoxy)quinolin-4-yl)oxy)pyridin-2-yl)-6-morpholinopicolinamide]	112	14.3
COc1cc2c(Oc3ccc(NC(=O)c4cccc(N5CCCC5)n4)nc3)ccnc2cc1OCCCN1CCOCC1 [Compound 26, N-(5-((6-methoxy-7-(3-morpholinopropoxy)quinolin-4-yl)oxy)pyridin-2-yl)-6-(pyrrolidin-1-yl)picolinamide]	32	7
COc1cc2c(Oc3ccc(NC(=O)c4cccc(N5CCC(C)(C)CC5)n4)nc3)ccnc2cc1OCCCN1CCOCC1 [Compound 27, 6-(4,4-dimethylpiperidin-1-yl)-N-(5-((6-methoxy-7-(3-morpholinopropoxy)quinolin-4-yl)oxy)pyridin-2-yl)picolinamide]	84.9	102
COc1cc2c(Oc3ccc(NC(=O)c4cccc(N5CCC(F)(F)CC5)n4)nc3)ccnc2cc1OCCCN1CCOCC1 [Compound 28, 6-(4,4-difluoropiperidin-1-yl)-N-(5-((6-methoxy-7-(3-morpholinopropoxy)quinolin-4-yl)oxy)pyridin-2-yl)picolinamide]	38.7	6.1
CCOC1CCN(c2cccc(C(=O)Nc3ccc(Oc4ccnc5cc(OCCCN6CCOCC6)c(OC)cc45)cn3)n2)CC1 [Compound 29, 6-(4-ethoxypiperidin-1-yl)-N-(5-((6-methoxy-7-(3-morpholinopropoxy)quinolin-4-yl)oxy)pyridin-2-yl)picolinamide]	651	690
COc1cc2c(Oc3ccc(NC(=O)c4cccc(N5CC(F)(F)C5)n4)nc3)ccnc2cc1OCCCN1CCOCC1 [Compound 30, 6-(3,3-difluoroazetidin-1-yl)-N-(5-((6-methoxy-7-(3-morpholinopropoxy)quinolin-4-yl)oxy)pyridin-2-yl)picolinamide]	110	9.4
COc1cc2c(Oc3ccc(NC(=O)c4cc(F)ccn4)nc3)ccnc2cc1OCCCN1CCOCC1 [Compound 31, 4-Fluoro-N-(5-((6-methoxy-7-(3-morpholinopropoxy)quinolin-4-yl)oxy)pyridin-2-yl)picolinamide]	739	311
COc1cc2c(Oc3ccc(NC(=O)c4cc(C)ccn4)nc3)ccnc2cc1OCCCN1CCOCC1 [Compound 32, N-(5-((6-Methoxy-7-(3-morpholinopropoxy)quinolin-4-yl)oxy)pyridin-2-yl)-4-methylpicolinamide]	462	162
COc1ccnc(C(=O)Nc2ccc(Oc3ccnc4cc(OCCCN5CCOCC5)c(OC)cc34)cn2)c1 [Compound 33, 4-Methoxy-N-(5-((6-methoxy-7-(3-morpholinopropoxy)quinolin-4-yl)oxy)pyridin-2-yl)picolinamide]	188	161
COc1cc2c(Oc3ccc(NC(=O)c4cc(C(F)(F)F)ccn4)nc3)ccnc2cc1OCCCN1CCOCC1 [Compound 34, N-(5-((6-Methoxy-7-(3-morpholinopropoxy)quinolin-4-yl)oxy)pyridin-2-yl)-4-(trifluoromethyl)picolinamide]	327	183
COc1cc2c(Oc3ccc(NC(=O)c4nc(-c5ccccc5)c5c(n4)C4CCN5CC4)nc3)ccnc2cc1OCCCN1CCOCC1 [Compound 35, N-(5-((6-methoxy-7-(3-morpholinopropoxy)quinolin-4-yl)oxy)pyridin-2-yl)-4-phenyl-7,8-dihydro-6H-5,8-ethanopyrido[3,2-d]pyrimidine-2-carboxamide]	3	5
